Tested on: Mild to Moderate Osteoarthritis of the Knee
Test: Phase 2 study: WOMAC joint stiffness subscale score
Assay type: in vivo, human
Conditions: for Change of WOMAC Joint Stiffness score from baseline (±SEM), adjusted by […] of the Testing Drug Amount / Percentage of improvement from baseline, WOMAC Joint Stiffness score, adjusted by […] of the Testing Drug Amount / Change of WOMAC Joint Stiffness score from baseline (±SEM) / Percentage of improvement from baseline, WOMAC Joint Stiffness score: 35 mg/knee (BID); for Change of WOMAC Joint Stiffness score from baseline (±SEM) / Percentage of improvement from baseline, WOMAC Joint Stiffness score: all patients taken as active; for WOMAC Joint Stiffness Subscale Score, Avg.: Avg. of all patients; for WOMAC Joint Stiffness Subscale Score, Avg. / WOMAC Joint Stiffness Subscale Score: blinded; for WOMAC Joint Stiffness Subscale Score: individual patient
Excerpt: This is a Phase 2, multicenter, randomized, double blind (within dose), placebo controlled, parallel group, proof of concept, and dose range finding study to evaluate the efficacy, safety, and PK of 2-(diethylamino)ethyl 2-(4-isobutylphenyl)propionate hydrochloride spray in adult subjects with clinically symptomatic mild to moderate OA of the knee. For subjects with bilateral knee pain, both knees will be treated, but the most symptomatic knee (i.e., the most painful knee as measured by the Western Ontario and McMaster University Osteoarthritis Index [WOMAC® 3.1] pain subscale score at Screening) will be designated as the target knee for efficacy analyses. For subjects with unilateral knee pain, only the symptomatic (target) knee will be treated.
After a Screening Period of up to 3 weeks and radiographic evaluation of the target knee joint space, a subject will be randomly assigned to 1 of 3 treatment groups in a 1:1:1 ratio with a 2:1 ratio of active:placebo within each treatment group (ie, 2 subjects to active treatment and 1 subject to placebo): • Group A: 8.75 mg 2-(diethylamino)ethyl 2-(4-isobutylphenyl)propionate/knee (2 sprays/knee, one spray to the medial surface and one spray to the lateral surface of the knee), twice daily (BID, approximately every 12 hours; n=50) or placebo (2 sprays/knee), BID (approximately every 12 hours; n=25) for a total of 4 sprays per knee per day; • Group B: 17.5 mg 2-(diethylamino)ethyl 2-(4-isobutylphenyl)propionate/knee (4 sprays/knee, one spray to the medial surface and one spray to the lateral surface of the knee, and one spray to front and one spray to the back of the knee), BID (approximately every 12 hours; n=50) or placebo (4 sprays/knee), BID (approximately every 12 hours; n=25) for a total of 8 sprays per knee per day; • Group C: 35 mg 2-(diethylamino)ethyl 2-(4-isobutylphenyl)propionate/knee (8 sprays/knee, each spray is to be applied to a different non-overlapping area around the knee, and the areas are to be uniformly distributed around the knee), BID (approximately every 12 hours; n=50) or placebo (8 sprays/knee), BID (approximately every 12 hours; n=25) for a total of 16 sprays per knee per day.
The VAS version of the WOMAC will be used for the Primary and Secondary Efficacy Endpoints. Efficacy endpoints will be assessed at Screening and Baseline (Day 1) and at the Week 2, Week 4, Week 8, and Week 12/EOS visits.
3.9.2. Secondary Efficacy Endpoints: • 1. Change from Baseline in the WOMAC (VAS) pain subscale score for the target knee at 2, 4, and 8 weeks of treatment; • 2. Change from Baseline in the WOMAC (VAS) stiffness subscale scores for the target knee and WOMAC (VAS) functional ability subscale scores at 2, 4, 8, and 12 weeks of treatment; • 3. Change from Baseline in the overall WOMAC (VAS) score at 2, 4, 8, and 12 weeks of treatment.
The Secondary Efficacy Endpoints, change from Baseline in the WOMAC subscale scores for pain, stiffness, and functional ability, and overall WOMAC score at 2, 4, 8, and 12 weeks of treatment, will be analyzed using the same methods as for the Primary Efficacy Endpoint.
To determine this, we assumed that all patients received 2-(diethylamino)ethyl 2-(4-isobutylphenyl)propionate, active drug treatment (i.e. all patients who received 2-(diethylamino)ethyl 2-(4-isobutylphenyl)propionate or placebo treatment for 12 weeks or mixed up treatment during the 12-week treatment, as 2-(diethylamino)ethyl 2-(4-isobutylphenyl)propionate-treated). Based on this assumption, that is, to treat this trial as an open-label study and that all patients received active treatment, we conducted efficacy analysis using top-line efficacy datasets prepared by CRO and the re-analysis results are presented in the following tables (Tables 29-47). […] (William G. Bensen, Justus J. Fiechtner, James 1. McMillen, et. al. Treatment of Osteoarthritis with Celecoxib. Mayo Clin Proc, November 1999. Vol 74, 1095-1105.)

[1] = Middle Dose (4 spray/knee, 17.5 mg/knee) Cohort, Day 1
[2] = Middle Dose (4 spray/knee, 17.5 mg/knee) Cohort, Week 2

Q: With CCN(CC)CCOC(=O)C(C)c1ccc(CC(C)C)cc1 (centres unmarked) [2-(diethylamino)ethyl 2-(4-isobutylphenyl)propionate] as the molecule, how does the “Change of WOMAC Joint Stiffness score from baseline (±SEM), adjusted by […] of the Testing Drug Amount” value (Week 8 (day 56)) read?
A: −36.9(±5.8) mm

Q: What about the “Percentage of improvement from baseline, WOMAC Joint Stiffness score, adjusted by […] of the Testing Drug Amount” value (Week 8 (day 56)) of the same molecule?
A: −59.3%

Q: What about the “Change of WOMAC Joint Stiffness score from baseline (±SEM)” value (Week 8 (day 56)) of the same molecule?
A: −21.5(±3.4) mm

Q: And the “Percentage of improvement from baseline, WOMAC Joint Stiffness score” value (Week 8 (day 56))?
A: −34.6%

Q: What about the “Change of WOMAC Joint Stiffness score from baseline (±SEM), adjusted by […] of the Testing Drug Amount” value (Week 12 (day 84)) of the same molecule?
A: −41.2(±5.7) mm

Q: What about the “Percentage of improvement from baseline, WOMAC Joint Stiffness score, adjusted by […] of the Testing Drug Amount” value (Week 12 (day 84)) of the same molecule?
A: −66.2%

Q: What about the “Change of WOMAC Joint Stiffness score from baseline (±SEM)” value (Week 12 (day 84)) of the same molecule?
A: −24.0(±3.3) mm

Q: What about the “Percentage of improvement from baseline, WOMAC Joint Stiffness score” value (Week 12 (day 84)) of the same molecule?
A: −38.6%

Q: What about the “reduction of Stiffness WOMAC from baseline to week 12” value (5 patients on second batch active drug kits) of the same molecule?
A: 58.6-100%

Q: What about the “WOMAC Joint Stiffness Subscale Score, Avg.” value (35 mg/knee (8 spray/knee), Day 1) of the same molecule?
A: 62.1

Q: What about the “WOMAC Joint Stiffness Subscale Score, Avg.” value (35 mg/knee (8 spray/knee), Follow-up) of the same molecule?
A: 37.7

Q: What about the “WOMAC Joint Stiffness Subscale Score, Avg.” value (35 mg/knee (8 spray/knee), Week 2) of the same molecule?
A: 50.8

Q: What about the “WOMAC Joint Stiffness Subscale Score, Avg.” value (35 mg/knee (8 spray/knee), Week 4) of the same molecule?
A: 44.5

Q: And the “WOMAC Joint Stiffness Subscale Score, Avg.” value (35 mg/knee (8 spray/knee), Week 8)?
A: 40.6

Q: And the “WOMAC Joint Stiffness Subscale Score, Avg.” value (35 mg/knee (8 spray/knee), Week 12)?
A: 38.1

Q: And the “WOMAC Joint Stiffness Subscale Score, Avg.” value [1]?
A: 68.0

Q: And the “WOMAC Joint Stiffness Subscale Score, Avg.” value (Middle Dose (4 spray/knee, 17.5 mg/knee) Cohort, Follow-up)?
A: 41.9

Q: And the “WOMAC Joint Stiffness Subscale Score, Avg.” value [2]?
A: 49.2

Q: What about the “WOMAC Joint Stiffness Subscale Score, Avg.” value (Middle Dose (4 spray/knee, 17.5 mg/knee) Cohort, Week 4) of the same molecule?
A: 44.7

Q: What about the “WOMAC Joint Stiffness Subscale Score, Avg.” value (Middle Dose (4 spray/knee, 17.5 mg/knee) Cohort, Week 8) of the same molecule?
A: 41.5

Q: And the “WOMAC Joint Stiffness Subscale Score, Avg.” value (Middle Dose (4 spray/knee, 17.5 mg/knee) Cohort, Week 12)?
A: 38.2

Q: And the “WOMAC Joint Stiffness Subscale, WOMAC VAS Score” value (Patient 1056, second batch active drug kits, Day 1)?
A: 48.5 mm

Q: And the “WOMAC Joint Stiffness Subscale, WOMAC VAS Score” value (Patient 1056, second batch active drug kits, Follow Up)?
A: 17.0 mm

Q: And the “WOMAC Joint Stiffness Subscale, WOMAC VAS Score” value (Patient 1056, second batch active drug kits, Week 2)?
A: 45.0 mm

Q: What about the “WOMAC Joint Stiffness Subscale, WOMAC VAS Score” value (Patient 1056, second batch active drug kits, Week 4) of the same molecule?
A: 44.5 mm

Q: And the “WOMAC Joint Stiffness Subscale, WOMAC VAS Score” value (Patient 1056, second batch active drug kits, Week 8)?
A: 43.5 mm

Q: What about the “WOMAC Joint Stiffness Subscale, WOMAC VAS Score” value (Patient 1056, second batch active drug kits, Week 12) of the same molecule?
A: 23.5 mm

Q: What about the “WOMAC Joint Stiffness Subscale, WOMAC VAS Score” value (Patient 1064, second batch active drug kits, Day 1) of the same molecule?
A: 66.5 mm

Q: What about the “WOMAC Joint Stiffness Subscale, WOMAC VAS Score” value (Patient 1064, second batch active drug kits, Follow Up) of the same molecule?
A: 1.0 mm

Q: And the “WOMAC Joint Stiffness Subscale, WOMAC VAS Score” value (Patient 1064, second batch active drug kits, Week 2)?
A: 20.5 mm

Q: What about the “WOMAC Joint Stiffness Subscale, WOMAC VAS Score” value (Patient 1064, second batch active drug kits, Week 4) of the same molecule?
A: 12.5 mm

Q: And the “WOMAC Joint Stiffness Subscale, WOMAC VAS Score” value (Patient 1064, second batch active drug kits, Week 8)?
A: 0.0 mm

Q: What about the “WOMAC Joint Stiffness Subscale, WOMAC VAS Score” value (Patient 1064, second batch active drug kits, Week 12) of the same molecule?
A: 1.0 mm

Q: And the “WOMAC Joint Stiffness Subscale, WOMAC VAS Score” value (Patient 1535, second batch active drug kits, Day 1)?
A: 55.0 mm

Q: And the “WOMAC Joint Stiffness Subscale, WOMAC VAS Score” value (Patient 1535, second batch active drug kits, Follow Up)?
A: 0.0 mm

Q: And the “WOMAC Joint Stiffness Subscale, WOMAC VAS Score” value (Patient 1535, second batch active drug kits, Week 2)?
A: 3.5 mm

Q: And the “WOMAC Joint Stiffness Subscale, WOMAC VAS Score” value (Patient 1535, second batch active drug kits, Week 4)?
A: 3.0 mm

Q: What about the “WOMAC Joint Stiffness Subscale, WOMAC VAS Score” value (Patient 1535, second batch active drug kits, Week 8) of the same molecule?
A: 3.0 mm

Q: What about the “WOMAC Joint Stiffness Subscale, WOMAC VAS Score” value (Patient 1535, second batch active drug kits, Week 12) of the same molecule?
A: 0.0 mm

Q: And the “WOMAC Joint Stiffness Subscale, WOMAC VAS Score” value (Patient 1539, second batch active drug kits, Day 1)?
A: 70.0 mm

Q: What about the “WOMAC Joint Stiffness Subscale, WOMAC VAS Score” value (Patient 1539, second batch active drug kits, Follow Up) of the same molecule?
A: 2.0 mm

Q: What about the “WOMAC Joint Stiffness Subscale, WOMAC VAS Score” value (Patient 1539, second batch active drug kits, Week 2) of the same molecule?
A: 54.5 mm

Q: What about the “WOMAC Joint Stiffness Subscale, WOMAC VAS Score” value (Patient 1539, second batch active drug kits, Week 4) of the same molecule?
A: 44.0 mm

Q: What about the “WOMAC Joint Stiffness Subscale, WOMAC VAS Score” value (Patient 1539, second batch active drug kits, Week 8) of the same molecule?
A: 8.0 mm

Q: And the “WOMAC Joint Stiffness Subscale, WOMAC VAS Score” value (Patient 1539, second batch active drug kits, Week 12)?
A: 3.0 mm

Q: What about the “WOMAC Joint Stiffness Subscale, WOMAC VAS Score” value (Patient 9032, second batch active drug kits, Day 1) of the same molecule?
A: 14.5 mm

Q: What about the “WOMAC Joint Stiffness Subscale, WOMAC VAS Score” value (Patient 9032, second batch active drug kits, Follow Up) of the same molecule?
A: 9.5 mm

Q: And the “WOMAC Joint Stiffness Subscale, WOMAC VAS Score” value (Patient 9032, second batch active drug kits, Week 2)?
A: 9.5 mm

Q: What about the “WOMAC Joint Stiffness Subscale, WOMAC VAS Score” value (Patient 9032, second batch active drug kits, Week 4) of the same molecule?
A: 5.0 mm

Q: And the “WOMAC Joint Stiffness Subscale, WOMAC VAS Score” value (Patient 9032, second batch active drug kits, Week 8)?
A: 3.0 mm

Q: What about the “WOMAC Joint Stiffness Subscale, WOMAC VAS Score” value (Patient 9032, second batch active drug kits, Week 12) of the same molecule?
A: 6.0 mm

Q: And the “WOMAC Joint Stiffness Subscale Score” value [1]?
A: 64.5

Q: What about the “WOMAC Joint Stiffness Subscale Score” value [2] of the same molecule?
A: 62.0

— US20240024273A1, “TOPICAL ADMINISTRATION OF 2-(DIETHYLAMINO)ETHYL 2-(4-ISOBUTYLPHENYL)PROPRIONATE FOR TREATMENT OF DISEASES” (TECHFIELDS PHARMA CO., LTD., priority 2020, published 2024)
